The text below walks through data of article PMC9573387, “The First 5′-Phosphorylated 1,2,3-Triazolyl Nucleoside Analogues with Uracil and Quinazoline-2,4-Dione Moieties: A Synthesis and Antiviral Evaluation” (Molecules, 2022).

Structures can show the parent of a compound that is named as a salt. Where two headings read alike, the source gives them in different places.

One series can be described thus: in vitro. The conditions noted are these: dog.
For series [1], the system named is A/Puerto Rico/8/34 (H1N1) influenza virus. The series can be described thus: microbe, parasite or virus in culture. The following applies: for IC50: A/Puerto Rico/8/34 (H1N1), MDCK cells, 48 h, read-out: IC50 (50% inhibition of virus replication). It counts as cell-based.
Series [2] deals with MDCK (ATCC CCL-34) cells.
Series [3] relates to A/Puerto Rico/8/34 (H1N1) influenza virus. Details: method as in PMID 32930935. The conditions noted are these: parent nucleoside analogues, cited from earlier work; for IC50: A/Puerto Rico/8/34 (H1N1), read-out: IC50 (50% inhibition of virus replication).
The subject of series [4] is MDCK (ATCC CCL-34) cells. The following applies: read-out: CC50 (median cytotoxic concentration); parent nucleoside analogues; cited from earlier work.
The subject of a further series is HIV. The following applies: cited from earlier work.
A further series has as its system wild-type HIV RT. Details: method as in PMID 17434736. The conditions noted are these: cited from earlier work.
Series [5] has as its system recombinant HIV reverse transcriptases (RT). Details: method as in PMID 17434736. The conditions noted are these: cited from earlier work.

For `COC(=O)[C@H](C)NP(=O)(OC[C@H]1O[C@@H](n2cc(CCCCn3ccc(=O)[nH]c3=O)nn2)[C@H](O)[C@@H]1O)Oc1ccccc1` (stereo partly shown) [Compound 18a], the CC50 in “in vitro” is more than 463 µM. For the same compound, the “Antiviral activity against H1N1 (A/PR/8/34) influenza virus, in words” value (“Antiviral activity against H1N1” below) in series [1] is “inactive”.

The compound `O=c1ccn(CCCCc2cn([C@@H]3O[C@H](COP(=O)(O)O)[C@@H](O)[C@H]3O)nn2)c(=O)[nH]1` [Compound 26a] registered a CC50 in the series “in vitro” of more than 463 µM. Moreover, the “Antiviral activity against H1N1” value in series [1] was “inactive”. Moreover, in series [1] (Influenza A virus), the IC50 was 195 ± 26 µM.

For `CC(N)C12CC3CC(CC(C3)C1)C2` (stereo not shown) [Rimantadine, reference compound], the CC50 in the series with MDCK (ATCC CCL-34) cells [2] (read-out: CC50 (median cytotoxic concentration), MDCK cells, MTT, concentration causing 50% cell death) came out at 340 ± 16 µM. Moreover, the “SI (selectivity index, CC50/IC50 ratio)” value in series [1] was 4. Moreover, the IC50 in series [1] (Influenza A virus, H1N1, MDCK) amounted to 77 ± 8 µM.

Take `O=c1ccn(CCCCc2cn([C@@H]3O[C@H](CO)[C@@H](O)[C@H]3O)nn2)c(=O)[nH]1` [Compound 34a]: in series [3], the IC50 is more than 180 µM and the “Antiviral activity against H1N1” value is “inactive”. For the same compound, the CC50 in the series with MDCK (ATCC CCL-34) cells [4] was more than 817 µM.

On to `O=c1ccn(Cc2cn([C@@H]3O[C@H](CO[PH](=O)O)[C@@H](O)[C@H]3O)nn2)c(=O)[nH]1` [Compound 23a, 1-[4-(2,4-dioxo-pyrimidine-1-yl-methyl)-1,2,3-triazol-1-yl]--D-ribofuranose-5-yl H-phosphonate triethylammonium salt], for which the CC50 in “in vitro” is more than 612 µM. Also, in series [1] (Influenza A virus), the IC50 amounted to 204 ± 28 µM.

On to `O=c1[nH]c(=O)n(CCCCc2cn([C@@H]3O[C@H](COP(=O)(Oc4ccccc4)Oc4ccccc4)[C@@H](O)[C@H]3O)nn2)c2ccccc12` [Compound 14b], for which the CC50 in “in vitro” was 98 ± 6 µM. Further, the “Increase of cytotoxicity over the parent compound” value in the series with MDCK (ATCC CCL-34) cells [2] (CC50 versus parent compound 34b) was 7 fold. The “SI (selectivity index, CC50/IC50 ratio)” value in series [1] stood at 2. In addition, in series [1] (Influenza A virus, H1N1, MDCK), the IC50 came out at 51 ± 4 µM.

Compound `O=c1ccn(Cc2cn([C@@H]3O[C@H](COP(=O)(Oc4ccccc4)Oc4ccccc4)[C@@H](O)[C@H]3O)nn2)c(=O)[nH]1` [Compound 13a] returned a CC50 in “in vitro” of more than 538 µM. The IC50 in series [1] (Influenza A virus, H1N1, MDCK) amounted to 121 ± 7 µM.

Regarding `O=c1ccn(Cc2cn([C@@H]3O[C@H](CO)[C@@H](O)[C@H]3O)nn2)c(=O)[nH]1` [Compound 33a], in series [3], the IC50 is more than 880 µM and the “Antiviral activity against H1N1” value is “completely inactive”. The CC50 with MDCK (ATCC CCL-34) cells [4] was more than 880 µM.

`O=c1[nH]c(=O)n(Cc2cn([C@@H]3O[C@H](COP(=O)(Oc4ccccc4)Oc4ccccc4)[C@@H](O)[C@H]3O)nn2)c2ccccc12` [Compound 13b]: the CC50 in the series “in vitro” was more than 494 µM. Besides, the “Antiviral activity exceeding that of the parent compound” value in series [1] (IC50 versus parent compound 33b) was 2 times. For the same compound, the IC50 in series [1] (Influenza A virus, H1N1, MDCK) was 17.9 ± 3 µM. In addition, the “Increase of selectivity index over the parent compound” value in series [1] (SI versus parent compound 33b) is listed as 7 times.

In “in vitro”, `COC(=O)[C@H](C)NP(=O)(OC[C@H]1O[C@@H](n2cc(Cn3c(=O)[nH]c(=O)c4ccccc43)nn2)[C@H](O)[C@@H]1O)Oc1ccccc1` (stereo partly shown) [Compound 17b] displayed a CC50 of more than 487 µM. The IC50 in series [1] (Influenza A virus, H1N1, MDCK) was more than 487 µM.

As to `CCC(CC)O[C@@H]1C=C(C(=O)O)C[C@H](N)[C@H]1NC(C)=O` [Oseltamivir carboxylate, reference compound], the CC50 in the series “in vitro” is more than 200 µM. For the same compound, the “SI (selectivity index, CC50/IC50 ratio)” value in series [1] was more than 667. The IC50 in series [1] (Influenza A virus) stood at 0.3 ± 0.06 µM.

The compound `CCOP(=O)(OCC)OC[C@H]1O[C@@H](n2cc(Cn3ccc(=O)[nH]c3=O)nn2)[C@H](O)[C@@H]1O` [Compound 11a] displayed a CC50 in the series “in vitro” of more than 650 µM. The IC50 in series [1] (Influenza A virus, H1N1, MDCK) was found to be 434 ± 39 µM.

The compound `COC(=O)[C@H](C)NP(=O)(OC[C@H]1O[C@@H](n2cc(CCCCn3c(=O)[nH]c(=O)c4ccccc43)nn2)[C@H](O)[C@@H]1O)Oc1ccccc1` (stereo partly shown) [Compound 18b] came in with a CC50 in “in vitro” of more than 456 µM. The IC50 in series [1] (Influenza A virus, H1N1, MDCK) is more than 456 µM.

The compound `CCOP(=O)(OCC)OC[C@H]1O[C@@H](n2cc(CCCCn3ccc(=O)[nH]c3=O)nn2)[C@H](O)[C@@H]1O` [Compound 12a, 1-[4-(2,4-dioxo-pyrimidine-1-yl-butyl)-1,2,3-triazol-1-yl]--D-ribofuranose-5-yl diethyl phosphate] displayed a CC50 in the series “in vitro” of more than 596 µM. In addition, in series [1], the “Antiviral activity against H1N1” value is “inactive” and the IC50 was 250 ± 22 µM. Besides, the IC50 in series [1] (Influenza A virus, H1N1, MDCK) was more than 180 µM.

Consider `COC(=O)[C@H](C)NP(=O)(OC[C@H]1O[C@@H](n2cc(Cn3ccc(=O)[nH]c3=O)nn2)[C@H](O)[C@@H]1O)Oc1ccccc1` (stereo partly shown) [Compound 17a], for which the CC50 in “in vitro” was more than 530 µM. Besides, the 50% inhibitory concentration (IC50) in series [1] (Influenza A virus, H1N1, MDCK) is 25 ± 4 µM.

`O=c1ccn(CCCCc2cn([C@@H]3O[C@H](CO[PH](=O)O)[C@@H](O)[C@H]3O)nn2)c(=O)[nH]1` [Compound 24a] returned a CC50 in “in vitro” of more than 564 µM. Moreover, the “Antiviral activity against H1N1” value in series [1] was “inactive”. Also, the IC50 in series [1] (Influenza A virus) amounted to 218 ± 32 µM.

As for `O=c1[nH]c(=O)n(Cc2cn([C@@H]3O[C@H](CO)[C@@H](O)[C@H]3O)nn2)c2ccccc12` [Compound 33b], the IC50 in series [3] is 42 ± 5 µM. Further, the “SI (selectivity index, CC50/IC50 ratio)” value in series [1] stood at 3.

In turn, `O=c1[nH]c(=O)n(Cc2cn([C@@H]3O[C@H](CO[PH](=O)O)[C@@H](O)[C@H]3O)nn2)c2ccccc12` [Compound 23b] had a CC50 in the series “in vitro” of more than 555 µM. Moreover, the IC50 in series [1] (Influenza A virus) worked out at 176 ± 21 µM.

In turn, `O=c1[nH]c(=O)n(CCCCc2cn([C@@H]3O[C@H](COP(=O)(O)O)[C@@H](O)[C@H]3O)nn2)c2ccccc12` [Compound 26b] returned a CC50 in “in vitro” of more than 430 µM. In addition, in series [1] (Influenza A virus), the IC50 was more than 430 µM.

In the case of `O=c1ccn(Cc2cn([C@@H]3O[C@H](COP(=O)(O)O)[C@@H](O)[C@H]3O)nn2)c(=O)[nH]1` [Compound 25a], in “in vitro”, the CC50 is more than 494 µM. Besides, in series [1] (Influenza A virus, H1N1, MDCK), the IC50 is more than 494 µM.

In turn, `NC(=O)c1ncn([C@@H]2O[C@H](CO)[C@@H](O)[C@H]2O)n1` [Ribavirin, reference compound] returned a CC50 in the series on MDCK (ATCC CCL-34) cells [2] (dog) of 94 ± 48 µM. For the same compound, the “SI (selectivity index, CC50/IC50 ratio)” value in series [1] stood at 3. Besides, the IC50 in series [1] (Influenza A virus) came to 31 ± 9 µM.

With `CCOP(=O)(OCC)OC[C@H]1O[C@@H](n2cc(Cn3c(=O)[nH]c(=O)c4ccccc43)nn2)[C@H](O)[C@@H]1O` [Compound 11b], in “in vitro”, the CC50 was more than 587 µM. Moreover, the IC50 in series [1] (Influenza A virus, H1N1, MDCK) was determined as 411 ± 51 µM.

In the series “in vitro”, `O=c1[nH]c(=O)n(Cc2cn([C@@H]3O[C@H](COP(=O)(O)O)[C@@H](O)[C@H]3O)nn2)c2ccccc12` [Compound 25b] displayed a CC50 of more than 458 µM. Further, the IC50 in series [1] (Influenza A virus) came to 159 ± 19 µM.

Compound `O=c1[nH]c(=O)n(CCCCc2cn([C@@H]3O[C@H](CO[PH](=O)O)[C@@H](O)[C@H]3O)nn2)c2ccccc12` [Compound 24b] yielded a CC50 in “in vitro” of more than 516 µM. In addition, in series [1] (Influenza A virus, H1N1, MDCK), the IC50 is more than 516 µM.

In the case of `Nc1nc(=O)n([C@H]2C[C@@H](CO)C2)cc1F` [5-fluoro-1-[cis-3-(hydroxymethyl)-cyclobutyl]-cytosine], in the series on HIV (in vitro), the “Anti-HIV activity, inactive up to” value was more than 100 µM.

Turning to `COC(=O)[C@H](C)NP(=O)(OC[C@H]1O[C@@H](n2cc(C)c(=O)[nH]c2=O)C[C@@H]1N=[N+]=[N-])Oc1ccccc1` (stereo partly drawn) [ProTide-ZDV, 5′-(phenylmethoxy-L-alaninyl)phosphate of Zidovudine], the “Better activity against HIV than the parent nucleoside analogue” value with HIV (ProTide versus parent) is reported as “more than 100 times”.

In “in vitro”, `CCOP(=O)(OCC)OC[C@H]1O[C@@H](n2cc(CCCCn3c(=O)[nH]c(=O)c4ccccc43)nn2)[C@H](O)[C@@H]1O` [Compound 12b] registered a CC50 of more than 542 µM. Moreover, the IC50 in series [1] (Influenza A virus, H1N1, MDCK) was more than 542 µM.

On to `O=c1[nH]c(=O)n(CCCCc2cn([C@@H]3O[C@H](CO)[C@@H](O)[C@H]3O)nn2)c2ccccc12` [Compound 34b], for which, in series [3], the IC50 was 30 ± 4 µM. The CC50 in the series with MDCK (ATCC CCL-34) cells [4] was more than 719 µM.

Take `Nc1nc(=O)n([C@H]2C[C@@H](COP(=O)(O)OP(=O)(O)OP(=O)(O)O)C2)cc1F` [5′-triphosphate of 5-fluoro-1-[cis-3-(hydroxymethyl)-cyclobutyl]-cytosine]: the 50% inhibitory concentration (IC50) in the series with wild-type HIV RT is 6.9 µM; in series [5], 4.7 µM.

In the series “in vitro”, `O=c1ccn(CCCCc2cn([C@@H]3O[C@H](COP(=O)(Oc4ccccc4)Oc4ccccc4)[C@@H](O)[C@H]3O)nn2)c(=O)[nH]1` [Compound 14a] yielded a CC50 of more than 500 µM. In addition, the “Antiviral activity against H1N1” value in series [1] was “inactive”. Besides, the IC50 was 183 ± 15 µM in series [1] and more than 180 µM in series [1] (Influenza A virus, H1N1, MDCK).
